From patent US7998924B2, “Compounds that bind to p185 and methods of using the same” (The Trustees of The University of Pennsylvania, priority 2001, dated 2011) come the findings set out here.

Like-named read-outs stand apart in the source and are kept apart here. Positions of bridges follow the written chain, without caps; N, C: chain ends. Residues, ends and D or L forms follow the SMILES beside them. No end group written: not given here.

Data set [1] is described as follows: Peptide solubility in PBS buffer at 1 mg/mL. The class given is physicochemical. The settings on record: pH 7.4, 1 mg/mL. Here is the method:
These peptides could be readily dissolved in the PBS buffer, pH 7.4, at 1 mg/mL concentration without adjustment of pH.

Data set [2] concerns the target T1, HER2 receptor (Homo sapiens, UniProt P04626).
T1 construct: Recombinant purified HER2 receptor composed of the ectodomain of HER2 fused to the Fc of human IgG; purchased Xcyte Therapeutics, Seattle, Wash; (provided by Dr. Che Law; a gift, not a catalogue product)
The experiment in a line: Biacore competition: AHNP preinjection inhibits rhumAb 4D5 binding to immobilized HER2. Here is the method:
It was shown earlier that the AHNP peptide can mimic some functions of the anti-HER2/neu antibody, rhumAb 4135 in vitro and in vivo (see reference 40 below). […] To that end, injections of AHNP at variable concentrations (from 0 to 90 μM) were followed by injections of rhumAb 4135 at a constant 1 nM concentration, using the “Coinject” mode of the Biacore instrument.
Binding experiments were performed with the surface plasmon resonance based biosensor instrument Biacore 3000 (Biacore AB, Uppsala, Sweden) at 25° C. Recombinant purified HER2 receptor composed of the ectodomain of HER2 fused to the Fc of human IgG was provided by Dr. Che Law, Xcyte Therapeutics, Seattle, Wash. Immobilization of HER2 in the sensor surface was performed following the standard amine coupling procedure according to manufacturer's instructions. Briefly, 35 pit of a solution containing 0.2M N-ethyl-N-(dimethylaminopropyl) carbodiimide (EDC) and 0.05 M N-hydroxysuccinimide (NHS) were injected at a flow rate of 5 μL/min to activate carboxyl groups on the sensor chip surface. HER2 (40 ng/mL in 10 mM NaOAc buffer, pH 5.0) was flowed over the chip surface at a flow rate of 20 μL/min until the desired level bound protein was reached. […] Peptides were injected at variable concentrations at 20 μL/min flow rate and binding to the HER2 receptor immobilized on the chip was monitored in real time. […]
For orientation: In SPR one partner is held on a chip, and binding of the other changes the refractive index at the surface.

A further data set has as its system T6-17 cells. The conditions noted are these: for % inhibition of T6-17 cell proliferation in MTT assays: 1 μg/mL of peptides for 48 h. The protocol: (See reference 46 below.) HER2-expressing transformed tumor cells (T6-17) were used for this purpose. […] Each value represents an average of at least four samples.
The MTT assay has been used for measuring cell growth as previously described in ref 446. Briefly, T6-17 cells were seeded in 96-well plates overnight in DMEM containing 10% FBS (1000 per well). T6-17 is derived from NIH3T3 by overexpressing the human HER2 receptor. Cells were cultured in 100 μL of fresh medium containing 1 μg/mL of peptides for 48 h. […] A total of 25 μL of MTT solution (5 mg/mL in PBS) was added to each well, and after 2 h of incubation at 37° C., 100 μA of the extraction buffer (20% w/v of SDS, 50% N,N-dimethyl formamide, pH 4.7) were added. After an overnight incubation at 37° C., the optical density at 600 rim was measured using an ELISA reader.

Data set [3] deals with T1, HER2 receptor. The experiment in a line: Biacore (surface plasmon resonance) binding of peptides to immobilized HER2. The text has this: Binding of AHNP has been studies by means of surface plasmon resonance (Biacore) technology. In Biacore experiments, one of the interacting molecules (termed the ligand) is immobilized on the sensor surface, and the other interactant (termed the analyte) is continuously flown over that surface in a micro-flow cell. The interaction between the ligand and the analyte are monitored using a light source that is reflected at the immobilized chip. Binding of the analyte to the immobilized ligand changes the resonance angle of the reflected light due to changes in the refractive index of the surface. The response is plotted in real time in the form of sensorgram curves. The advantage with this approach is its sensitivity, ease of use, and ability to perform experiments with few microgram quantities of proteins and peptides. In addition, the kinetic binding studies reveal association and disassociation rates of the analyte which may be more relevant for understanding the pharmacokinetics of drug-receptor interactions.
Binding experiments were performed with the surface plasmon resonance based biosensor instrument Biacore 3000 (Biacore AB, Uppsala, Sweden) at 25° C. Recombinant purified HER2 receptor composed of the ectodomain of HER2 fused to the Fc of human IgG was provided by Dr. Che Law, Xcyte Therapeutics, Seattle, Wash. Immobilization of HER2 in the sensor surface was performed following the standard amine coupling procedure according to manufacturer's instructions. Briefly, 35 pit of a solution containing 0.2M N-ethyl-N-(dimethylaminopropyl) carbodiimide (EDC) and 0.05 M N-hydroxysuccinimide (NHS) were injected at a flow rate of 5 μL/min to activate carboxyl groups on the sensor chip surface. HER2 (40 ng/mL in 10 mM NaOAc buffer, pH 5.0) was flowed over the chip surface at a flow rate of 20 μL/min until the desired level bound protein was reached. Unreacted protein was washed out and unreacted activated groups were blocked by the injection of 35 μL of 1 M ethanolamine at 5 μL/min. […] A reference surface was generated simultaneously under the same conditions but without HER2 injection and used as a blank to correct for instrument and buffer artifacts. Peptides were injected at variable concentrations at 20 μL/min flow rate and binding to the HER2 receptor immobilized on the chip was monitored in real time. Each sensorgram consists of an association phase (first 240 s), reflecting binding of the injected peptide to the receptor, followed by a dissociation phase (300 s), during which the running buffer is passed over the chip and the bound peptide is being washed off the receptor surface.

The test system of data set [4] is MCF-7 parental strain (MCF/Par) p185-expressing cells. The experiment in a line: Combination treatment with tamoxifen, growth inhibition, MCF-7 parental. Format: cell-based. The settings on record: peptide 1 μg/ml plus tamoxifen.
Data set [5] deals with MCF-7/H2 p185-overexpressing cells. The experiment in a line: Combination treatment with tamoxifen, growth inhibition, MCF-7/H2. The class given is cell-based. The conditions noted are these: peptide 1 μg/ml plus tamoxifen.
Where [6] appears, read: Biacore, immobilized HER2, 25° C., read-out: binding to HER2 KD.

T1 sequence (P04626 23-652 limits assumed): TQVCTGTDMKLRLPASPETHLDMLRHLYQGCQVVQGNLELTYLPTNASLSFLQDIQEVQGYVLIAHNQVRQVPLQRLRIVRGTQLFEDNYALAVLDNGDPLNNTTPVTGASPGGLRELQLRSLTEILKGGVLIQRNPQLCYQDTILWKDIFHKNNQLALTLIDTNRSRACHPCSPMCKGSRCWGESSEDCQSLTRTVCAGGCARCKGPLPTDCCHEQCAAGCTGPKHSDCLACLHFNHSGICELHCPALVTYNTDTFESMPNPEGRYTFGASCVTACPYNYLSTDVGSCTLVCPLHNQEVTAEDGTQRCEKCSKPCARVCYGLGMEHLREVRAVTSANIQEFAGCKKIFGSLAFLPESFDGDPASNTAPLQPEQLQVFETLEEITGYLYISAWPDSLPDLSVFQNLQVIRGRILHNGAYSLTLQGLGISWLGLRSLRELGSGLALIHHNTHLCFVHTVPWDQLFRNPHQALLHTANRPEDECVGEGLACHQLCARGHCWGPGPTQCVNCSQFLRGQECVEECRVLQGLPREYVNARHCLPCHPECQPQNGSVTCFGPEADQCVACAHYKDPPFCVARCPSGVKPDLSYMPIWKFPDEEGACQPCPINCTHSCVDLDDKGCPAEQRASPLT

`CSCC[C@H](NC(=O)[C@H](Cc1ccc(O)cc1)NC(=O)[C@@H]1CSSC[C@H](NC(=O)[C@@H](N)Cc2ccccc2)C(=O)N[C@@H](CC(=O)O)C(=O)NCC(=O)N[C@@H](Cc2ccccc2)C(=O)N[C@@H](Cc2ccc(O)cc2)C(=O)N[C@@H](C)C(=O)N1)C(=O)N[C@@H](CC(=O)O)C(=O)N[C@H](C(N)=O)C(C)C` [Peptide 1]: in data set [1], the solubility is less than 1 mg/mL. On HER2 receptor [2], this molecule had an IC50 of 3.4 µM. The “% inhibition of T6-17 cell proliferation in MTT assays” value (shortened to “% inhibition”) in the data set on T6-17 cells was determined as 35.5%. For the same molecule, the “inhibition of growth of T6-17 cells (in words)” value with T6-17 cells (0.01 to 10 μg/mL) is on record as “dose-dependently”. For the same molecule, the koff on HER2 receptor [3] and on HER2 receptor [3] (read-out: binding to HER2 koff) was 0.000453 s⁻¹ in each case. In addition, the kon on HER2 receptor [3] and at HER2 receptor [3] (read-out: binding to HER2 kon) was 1410 M⁻¹ s⁻¹ in each case. Moreover, the “receptor-binding affinity (in words)” value at HER2 receptor [3] (Biacore) is on record as “submicromolar”. In addition, the Kd at HER2 receptor [3] (setting [6]) came to 0.32 µM.

Regarding `CSCC[C@H](NC(=O)[C@H](Cc1ccc(O)cc1)NC(=O)[C@@H]1CSSC[C@H](NC(=O)[C@@H](N)Cc2ccccc2)C(=O)N[C@@H](CC(=O)O)C(=O)NCC(=O)N[C@@H](Cc2ccccc2)C(=O)N[C@@H](Cc2ccc(O)cc2)C(=O)N[C@@H](C)C(=O)N1)C(=O)N[C@@H](CC(=O)O)C(=O)N[C@H](C(=O)O)C(C)C` [Peptide 2], in data set [1], the solubility was less than 1 mg/mL and the “solubility (in words)” value was “no improvement in solubility”. The “% inhibition” value in the data set on T6-17 cells amounted to 22.3%. In addition, the “fold increase in binding affinity for HER2 relative to the comparator peptide” value on HER2 receptor [3] (2 vs linear 9, AHNP vs 2, 3 vs AHNP) was “more than 5 fold”. In addition, the Kd on HER2 receptor [3] (setting [6]) came to 0.65 µM. Further, the koff at HER2 receptor [3] (read-out: binding to HER2 koff) stood at 0.000643 s⁻¹. The kon at HER2 receptor [3] (read-out: binding to HER2 kon) was 990 M⁻¹ s⁻¹.

Consider `CSCC[C@H](NC(=O)[C@H](Cc1ccc(O)cc1)NC(=O)[C@@H]1CSSC[C@H](NC(=O)[C@@H](N)Cc2ccc(O)cc2)C(=O)N[C@@H](CC(=O)O)C(=O)NCC(=O)N[C@@H](Cc2ccccc2)C(=O)N[C@@H](Cc2ccc(O)cc2)C(=O)N[C@@H](C)C(=O)N1)C(=O)N[C@@H](CC(=O)O)C(=O)N[C@H](C(N)=O)C(C)C` [Peptide 3] (H-YCDGFYACYMDV-NH2; disulfide 2-8; N-terminus assumed), for which the “growth inhibition in combination with tamoxifen (in words)” value in data set [4] and in data set [5] was “enhanced growth inhibition” each time. In data set [1], this molecule came in with a solubility of less than 1 mg/mL. The “biological activity in the MTT assay relative to comparator (in words)” value with T6-17 cells (T6-17 cells) was “almost twice the activity of AHNP”. Besides, the koff is 0.000294 s⁻¹ at HER2 receptor [3] (Biacore, immobilized HER2, 25° C., read-out: binding to HER2 koff) and 0.000294 s⁻¹ at HER2 receptor [3] (Biacore, immobilized HER2, read-out: koff). For the same molecule, the kon on HER2 receptor [3] (Biacore, immobilized HER2, 25° C., read-out: binding to HER2 kon) came to 1960 M⁻¹ s⁻¹. In addition, the Kd on HER2 receptor [3] (Biacore, read-out: receptor-binding affinity KD) was 0.15 µM.

As to `CSCC[C@H](NC(=O)[C@H](Cc1ccc(O)cc1)NC(=O)[C@H](CS)NC(=O)[C@H](C)NC(=O)[C@H](Cc1ccc(O)cc1)NC(=O)[C@H](Cc1ccccc1)NC(=O)CNC(=O)[C@H](CC(=O)O)NC(=O)[C@H](CS)NC(=O)[C@@H](N)Cc1ccccc1)C(=O)N[C@@H](CC(=O)O)C(=O)N[C@H](C(=O)O)C(C)C` [Peptide 9], in data set [1], the solubility is more than 1 mg/mL and the “solubility (in words)” value is “much higher solubility”. Also, the “% inhibition” value in the data set with T6-17 cells is given as 12.8%. The molecule further showed a Kd at HER2 receptor [3] of 3.56 µM. Moreover, the koff at HER2 receptor [3] (read-out: binding to HER2 koff) is 0.00106 s⁻¹. Moreover, the kon on HER2 receptor [3] (read-out: binding to HER2 kon) was determined as 298 M⁻¹ s⁻¹.

“FCGDGFYACYMDV-NH2 (disulfide 2-9 (inferred)) [SEQ ID NO: 143]”: the “growth inhibition in combination with tamoxifen (in words)” value in data set [4] and in data set [5] was “enhanced in vitro inhibition of proliferation” in each case.

By solubility is commonly meant the dissolved amount per volume that the medium holds. A lower solubility goes with little dissolved substance. In general, IC50 refers to the midpoint of a concentration-inhibition curve. A higher IC50 goes with weaker potency. For orientation: koff means the first-order rate constant of dissociation. As usually defined, the kon is the rate constant with which the complex forms. Broadly, the Kd is the equilibrium constant for the complex coming apart.
